The record followed here is patent publication US20260248763A1 (BIO GENUINE (SHANGHAI) BIOTECH CO., LTD, priority 2023, published 2026).

pIC50: −log10 of the molar value. Read-outs that look alike come from different tables or passages of the source.

Data set [1] is described as follows: Pharmacokinetic determination in SD rats. Format: in vivo. As to conditions: rat, female SD rats, plasma; for AUC(0-t): read-out: Area under the curve AUC0-t; for half-life: read-out: Half-life T1/2 (converted). The procedure:
Test Example 3: Pharmacokinetic Determination in SD Rats
In this study, female SD rats were selected as test animals. The LC/MS/MS method was used to quantitatively determine the plasma drug concentrations of the test compounds at different time points after intravenous injection (2 mg/kg) or oral administration (5 mg/kg) in rats, so as to evaluate the pharmacokinetic profile of the test drugs in rats.
(§1) The example compounds of the present disclosure, made in house.
(§2) SD rats (female, 180-220 g, 6-8 weeks old, purchased from Beijing Vital River Laboratory Animal Technology Co., Ltd., with animal production license number SCXK (Beijing) 2021-0006).
Vehicle for intravenous administration: 5% DMSO+10% Solutol+85% Saline.
Vehicle for oral administration: 5% DMSO+95% PEG400.
The test compound, formulated as a clear solution or suspension, was administered to overnight-fasted SD rats via tail vein injection or oral gavage. For intravenous administration, blood samples (0.25 mL) were collected via jugular vein puncture at pre-dose (0 h) and 0.083, 0.25, 0.5, 1, 2, 4, 6, 8, and 24 h post-dose. The samples were placed into sodium heparin anticoagulant tubes, and the mixture was vortexed thoroughly and centrifuged at 6,000 rpm for 3 minutes at 4° C. For oral gavage, blood samples were collected via jugular vein puncture at pre-dose (0 h) and 0.083, 0.25, 1, 2, 4, 6, 8, and 24 h post-dose. The samples were placed into sodium heparin anticoagulant tubes, and the mixture was vortexed thoroughly and centrifuged at 6,000 rpm for 3 minutes. Plasma drug concentrations were determined using the LC-MS/MS method, and the relevant pharmacokinetic parameters were calculated using the non-compartmental model with linear-log trapezoidal method in Phoenix WinNonlin 8.2.0 pharmacokinetic software.

A short description of data set [2]: Blood-brain distribution determination in SD rats. Format: in vivo. As to conditions: female SD rats, oral, 10 mg/kg. How it is done: Test Example 4: Blood-Brain Distribution Determination in SD Rats
In this study, female SD rats were selected as test animals. The LC/MS/MS method was used to quantitatively determine the drug concentrations of the test compounds in plasma and brain tissues at three different time points (0.5 h, 2 h, 4 h or 6 h) after oral administration (5 mg/kg or 10 mg/kg) in rats, so as to evaluate the pharmacokinetic profile of the test drugs in rats.
as §1, §2
Vehicle for oral administration: 5% DMSO+95% PEG400 or a mixture of (50% Labrasol+50% Water).
The test compound, formulated as a clear solution or suspension, was administered to overnight-fasted SD rats via oral gavage. For oral gavage, blood samples (0.25 mL) were collected via jugular vein puncture at pre-dose (0 h) and 0.5 h, 2 h, 4 h or 6 h post-dose. The samples were placed into sodium heparin anticoagulant tubes. After collection, the blood samples were placed on wet ice and centrifuged within 1 hour to separate the plasma. The separated plasma was stored frozen in a −80° C. freezer. After blood collection, the animals were euthanized by cervical dislocation. The whole brain tissue was dissected out. The collected brain tissue was first rinsed with physiological saline, blotted dry with absorbent paper, and then stored frozen in a −80° C. freezer. Prior to analysis, the brain tissue samples and plasma samples were taken out from the −80° C. freezer. After the brain tissue samples were completely thawed, a given amount of brain tissue was weighed, and 50% methanol/water was added for homogenization. Drug concentrations in plasma and brain tissues were determined using the LC-MS/MS method, and the relevant pharmacokinetic parameters were calculated using the non-compartmental model with linear-log trapezoidal method in Phoenix WinNonlin 8.2.0 pharmacokinetic software.

In another data set the target is T1, V1aR (Homo sapiens, UniProt P37288).
T1 construct: expressed in transfected cells; host or cells: V1a-CHO stably transfected cell line
T1 sequence (P37288 whole entry, species assumed): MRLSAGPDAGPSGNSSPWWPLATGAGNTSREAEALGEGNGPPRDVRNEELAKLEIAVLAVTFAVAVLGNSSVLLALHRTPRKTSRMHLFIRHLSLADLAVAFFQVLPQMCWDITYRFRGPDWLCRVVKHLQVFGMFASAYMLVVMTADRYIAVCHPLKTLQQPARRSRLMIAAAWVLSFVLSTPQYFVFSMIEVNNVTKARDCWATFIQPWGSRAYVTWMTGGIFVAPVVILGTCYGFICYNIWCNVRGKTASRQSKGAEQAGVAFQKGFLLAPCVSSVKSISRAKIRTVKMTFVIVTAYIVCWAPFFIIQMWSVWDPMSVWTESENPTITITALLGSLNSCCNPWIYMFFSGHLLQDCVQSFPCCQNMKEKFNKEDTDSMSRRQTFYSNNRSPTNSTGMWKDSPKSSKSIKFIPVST
Nature of the data set: Ca2+ mobilization in cells stably expressing V1aR (FLIPR, antagonist mode). Type of data set: cell-based. As to conditions: V1a-CHO stably transfected cell line. The text has this: Test Example 2. Determination of the Effect of the Compound of the Present Disclosure on Ca^2+ Mobilization in Cells Stably Expressing V1aR
To measure the antagonistic effect of the compound of the present disclosure on V1aR activity expressed in the V1a-CHO stably transfected cell line.
• F-12 (Hyclone, SH30026.01) • FLIPR CALCIUM 6 ASSAY KIT (Molecul Device, R8191) • Fetal Bovine Serum (FBS) (AusGeneX, FBS500-S) • Hygromycin B (Solarbio, H8080-1g) • DMSO (Sigma, D4540) • HBSS (Gibco 14025-092) • Probenecid (MCE, HY—B0545) • 0.36 mL 96 Round V-bottom Deep Well Plates for Laboratory (Biaosen P-0.36-BSA-96) • 384-well conical bottom polypropylene plate (Nunc, 264573) • Corning® 384-well Flat Clear Bottom Black Polystyrene TC-treated Microplates (Corning 3764)
• Biological safety cabinet (ECSO, AC2-6S1-TC) • Carbon dioxide cell incubator (ECSO, CCI-170B-8) • Inverted microscope (Olympus, CKX53) • Microplate low-speed centrifuge (Xiangzhi, TD5B) • FLIPR® Penta (Molecul Device, 5.0)
• 1. Cell plating: V1a-CHO cells were digested and harvested, resuspended and counted, and then inoculated into a 384-well cell plate at a density of: 1.2×10^4 cells/25 μL/well. The cell plate was then incubated in an incubator at 37° C. with 5% CO2 for about 16-20 h. • 2. The next day: after preparing Assay Buffer, 20× Component A was thawed to room temperature, diluted with Assay buffer to 1× loading buffer, and placed at room temperature for later use. • 3. The medium was removed from the cell plate, and 40 μL of 1× loading buffer was quickly added to each well. After centrifugation, the cell plate was incubated at 37° C. in the dark for 120 minutes. • 4. The serially diluted positive compound, serially diluted test compound, and agonist working solution were formulated. After mixing the serially diluted positive compound/serially diluted test compound with the agonist at a 1:1 ratio, 20 μL per well was transferred to a 384-well compound source plate. • 5. The cell plate, agonist source plate, and pipette tips were placed into their respective positions in the FLIPR instrument. Using FLIPR Tetra, 10 μL of the diluted agonist from Step 4 was added to each test well, and the data were collected at a wavelength of 515 nm-575 nm. • 6. The signal values were plotted against the compound concentrations, and the curve fitting and IC50 calculation were performed using the nonlinear regression method of GraphPad Prism software.

The target in the next data set is T2, OTR (Homo sapiens, UniProt P30559).
T2 construct: expressed in transfected cells; host or cells: OTR/HEK293 stably transfected cell line
T2 sequence (P30559 1-389): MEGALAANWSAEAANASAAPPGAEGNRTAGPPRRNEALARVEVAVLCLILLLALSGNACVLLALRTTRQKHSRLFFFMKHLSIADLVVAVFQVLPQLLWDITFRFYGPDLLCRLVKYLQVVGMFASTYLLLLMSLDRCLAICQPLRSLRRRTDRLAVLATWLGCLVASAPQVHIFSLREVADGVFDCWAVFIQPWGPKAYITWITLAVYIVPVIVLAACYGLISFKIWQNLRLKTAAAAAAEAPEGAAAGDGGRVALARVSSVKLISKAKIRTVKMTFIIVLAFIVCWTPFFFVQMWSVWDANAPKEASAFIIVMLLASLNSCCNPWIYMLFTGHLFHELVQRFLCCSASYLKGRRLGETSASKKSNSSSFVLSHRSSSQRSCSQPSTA
Nature of the data set: Ca2+ mobilization in cells stably expressing OTR (FLIPR, antagonist mode). Type of data set: cell-based. As to conditions: OTR/HEK293 stably transfected cell line. In outline:
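Antagonist mode: test compounds in 10-point 3-fold series were added on FLIPR to Fluo-4-loaded HEK293 cells stably expressing OTR, followed by reference agonist at its EC80, determined beforehand. The Max-Min calcium fluorescence response was fitted in Prism.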

Take `CO/N=C1/C[C@@H](CO)N(C(=O)c2ccc(-c3ccccc3C)cc2)C1` [Nolasiban, reference compound]: the AUC(0-t) in data set [1] (2 mg/kg, IV (2 mpk)) came to 3050 ng·h/mL; in data set [1] (5 mg/kg, PO (5 mpk)), 7700 ng·h/mL; in data set [2] (rat, plasma, read-out: Plasma area under the curve AUC0-t) it was 5700 ng·h/mL. Besides, the clearance in data set [1] (2 mg/kg, IV (2 mpk), read-out: Clearance Cl) is 11.1 mL/min/kg. In addition, the half-life in data set [1] (2 mg/kg, IV (2 mpk)) is 2.8 h; in data set [1] (5 mg/kg, PO (5 mpk)), 2.71 h. Also, the “Brain tissue area under the curve AUC0-t” value in data set [2] stood at 18727 ng·h/g. Also, the Kp in data set [2] (rat, brain/plasma, read-out: Brain/plasma exposure ratio) was 3.29. In addition, on V1aR, the pIC50 is 6.41.

As for `CO/N=C1/C[C@@H](CO)N(C(=O)c2ccc(-c3ccc(F)c(C#N)c3C)c3c2OCO3)C1` [Example C0123, (S, Z)-6-Fluoro-3-(7-(2-(hydroxymethyl)-4-(methoxyimino)pyrrolidine-1-carbonyl)benzo[d][1,3]dioxolan-4-yl)-2-methylbenzonitrile], the pIC50 on OTR is 7.79; on V1aR it was 5.04.

With `CO/N=C1/C[C@@H](CO)N(C(=O)c2ccc(-c3cccc(C)c3C)c(C)c2)C1` [Example C0047, (S, Z)-(2,2′,3′-Trimethyl-[1,1′-biphenyl]-4-yl)(2-(hydroxymethyl)-4-(methoxyimino)pyrrolidin-1-yl)methanone], the negative logarithm of the IC50 (pIC50) is 7.95 on OTR and 5.62 against V1aR.

For the compound `CO/N=C1/C[C@@H](CO)N(C(=O)c2ccc(-c3cccc(C)c3C)c(C(F)F)c2)C1` [Example A0134, (S,Z)-(2-(Difluoromethyl)-2′, 3′-dimethyl-[1,1′-biphenyl]-4-yl)(2-(hydroxymethyl)-4-(methoxyimino)pyrrolidin-1-yl)methanone], the pIC50 against OTR is 7.88; at V1aR, 5.24.

Take `CO/N=C1/C[C@@H](CO)N(C(=O)c2ccc(-c3cccc(C)c3C)cc2OC)C1` [Example C0038, (S,Z)-(2-(Hydroxymethyl)-4-(methoxyimino)pyrrolidin-1-yl)(3-methoxy-2′,3′-dimethyl-[1,1′-biphenyl]-4-yl)methanone]: the pIC50 was 7.87 against OTR and 5.86 on V1aR.

Turning to `CO/N=C1/C[C@@H](CO)N(C(=O)c2ccc(-c3cccc(C(F)(F)F)c3C)cc2)C1` [Example C0060, (S,Z)-(2-(Hydroxymethyl)-4-(methoxyimino)pyrrolidin-1-yl)(2′-methyl-3′-(trifluoromethyl)-[1,1′-biphenyl]-4-yl)methanone], the results for the pIC50 on OTR and on V1aR were 7.75 and 5.49, respectively.

Turning to `CO/N=C1/C[C@@H](CO)N(C(=O)c2ccc(-c3cccc(C)c3C)c(OCCO)c2)C1` [Example A0148, (S, Z)-(2-(2-Hydroxyethoxy)-2′,3′-dimethyl-[1,1′-biphenyl]-4-yl)(2-(hydroxymethyl)-4-(methoxyimino)pyrrolidin-1-yl)methanone], the figures for the pIC50 against OTR and against V1aR were 7.46 and 6.14, respectively.
